# Literature values in paper PMC10182713 (South African Journal of Botany, 2023).
# Test system: multidrug-resistant TB
# Conditions: ref Favela-Hernández et al. (2012); cited from earlier work
row,SMILES,Activity against multidrug-resistant TB in words
1,"COc1cc(-c2oc3c(OC)c(OC)cc(O)c3c(=O)c2OC)ccc1O [5,4-dihydroxy-3,7,8,3-tetramethoxyflavone]",active
2,"COc1cc(O)c2c(=O)c(OC)c(-c3ccc(O)cc3)oc2c1OC [5,4-dihydroxy 3,7,8-trimethoxyflavone]",active
